Data: patent US10065942B2, “Crystalline (2S)-3-[(3S,4S)-3-[(1R)-1-hydroxyethyl]-4-(4-methoxy-3-{[1-(5-methylpyridin-2-yl)azetidin-3-yl]oxy}phenyl)-3-methylpyrrolidin-1-yl]-3-oxopropane-1,2-diol” (Eli Lilly and Company, priority 2014, dated 2018)

Test system: chronic cyclophosphamide (CYP)-induced overactive bladder mouse model
Assay: Overactive Bladder In Vivo Model (chronic cyclophosphamide-induced OAB)
Conditions: for Mean Voiding Frequency (no./4 hr) / Mean Volume/Void: oral daily, day 8, female C57/Bl6 mice
Method: The in vivo effect of PDE4 inhibitors on OAB is studied with a chronic cyclophosphamide (CYP)-induced overactive bladder mouse model adapted from Boudes et al., Neurourol. Urodynam. 2011. In a typical study, female C57/Bl6 mice, approximately 20 grams in body weight (Harlan Laboratories, Inc., Indianapolis, Ind.) are used. Mice are randomized by body weight into groups one day before the start of the study. Mice are individually housed and maintained on a 12 hour light/dark cycle at 22° C. with ad lib access to food (TD 2014 with 0.72% Ca and 0.61% P, 990 IU/g D3, Teklad™, Madison, Wis.) and water. Animals receive cyclophosphamide (dissolved in physiological saline) i.p. administration at 100 mg/kg on days 1, 3, 5, and 7 to chronically induce OAB. The vehicle control group received daily vehicle (HEC 1%/Tween 80 0.25%/Antifoam 0.05%) administered orally. All other groups are administered orally tadalafil at 10 mg/kg in combination with 0.1, 1.0, or 10.0 mg/kg of test compound daily at a volume of 200 μl/mouse. On day 8, mice are housed in urine collection chambers with a filter paper placed underneath chamber. Prior to urine collection, gavages of 1 ml water are given to each mouse. Urine is collected from 6 pm to 10 pm (i.e. for 4 hrs). Gel cups (DietGel™ 76A) are supplied as water source during the 4 hour period. The filter paper is changed every hour. Voiding frequency and volume/void are calculated using Image J software (NIH). Data are statistically analyzed with JMP8® software (Cary, N. C.).
All treatment groups receive a fixed dose of 10 mg/kg of tadalafil.

[1] = Example 2 0.1 mg/kg + tadalafil 10 mg/kg
[2] = Example 2 1.0 mg/kg + tadalafil 10 mg/kg
[3] = Example 2 10.0 mg/kg + tadalafil 10 mg/kg
[4] = given with tadalafil 10 mg/kg, 0.1, 1.0, 10.0 mg/kg oral daily

COc1ccc([C@@H]2CN(C(=O)[C@@H](O)CO)C[C@@]2(C)[C@@H](C)O)cc1OC1CN(c2ccc(C)cn2)C1 [Example 2, (2S)-3-[(3S,4S)-3-[(1R)-1-hydroxyethyl]-4-(4-methoxy-3-{[1-(5-methylpyridin-2-yl)azetidin-3-yl]oxy}phenyl)-3-methylpyrrolidin-1-yl]-3-oxopropane-1,2-diol]
Mean Voiding Frequency (no./4 hr) [1]: 10 no./4 hr
Mean Volume/Void [1]: 47.3 µL
Mean Voiding Frequency (no./4 hr) [2]: 8.61 no./4 hr
Mean Volume/Void [2]: 77.2 µL
Mean Voiding Frequency (no./4 hr) [3]: 8.38 no./4 hr
Mean Volume/Void [3]: 81.9 µL
effect on urinary frequency (in words) [4]: significantly reduces urinary frequency in a dose-dependent fashion
effect on volume/void (in words) [4]: increases of volume/void are also observed in a dose-dependent fashion
